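Interpolation was linear, between the two tested concentrations surrounding the appropriate level; five concentrations were tested over 48 hours in 96-well plates. TGI: concentration producing complete growth inhibition.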

Assay in all cases: inhibition of tumour cell growth, NCI panel, 48 h
Experiment [1] relates to 786-0 renal.
Experiment [2] concerns MOLT-4 leukemia.
The subject of experiment [3] is HOP-62 NSCLC.
Experiment [4] deals with HT29 colon.
Experiment [5] deals with SK-MEL-5 melanoma.
The subject of experiment [6] is MDA-N.
The subject of experiment [7] is COLO 205 colon.
Experiment [8] has as its system UACC-62 melanoma.
In experiment [9] the test system is M14 melanoma.
Experiment [10] concerns NCI-H522 lung.
In experiment [11] the test system is OVCAR-3 ovarian.
The subject of experiment [12] is KM12 colon.
In experiment [13] the test system is RPMI-8226 leukemia.
In experiment [14] the test system is T-47D breast.
For experiment [15], the system named is MDA-MB-231 breast.
In experiment [16] the test system is HCT-15 colon.
The subject of experiment [17] is SR leukemia.
The subject of experiment [18] is SK-MEL-2 melanoma.

For the compound `CC(C)CC(NP(=O)(O)OC1OC(C)C(O)C(O)C1O)C(=O)NC(Cc1c[nH]c2ccccc12)C(=O)O` (stereo not drawn), the TGI in experiment [1], in experiment [2], in [3], in experiment [4], in experiment [5] and in experiment [6] was over 100 µM each time. For the same compound, the TGI in [7], in experiment [8], in [9], in [10], in [11] and in experiment [12] was over 100 µM in each case. Moreover, the TGI in [13], in experiment [14], in experiment [15] and in experiment [16] was over 100 µM in each case.
On to `CN=C(N)N=Nc1c(O)[nH]c2ccccc12`, for which the TGI in [1], in [2], in [3], in experiment [4], in [5] and in experiment [6] was over 100 µM in each case. The TGI in experiment [7], in [8], in experiment [9], in [10], in experiment [17] and in experiment [12] was over 100 µM each time. Moreover, the TGI in experiment [13], in experiment [14], in experiment [15], in experiment [16] and in experiment [18] was over 100 µM in each case.
As to `CSc1nn(C)cc2nc(C)nc1-2`, the TGI in experiment [1], in [2], in experiment [3], in [4], in experiment [5] and in [6] was over 100 µM in each case. For the same compound, the TGI in experiment [7], in experiment [8], in [9], in [17], in experiment [11] and in experiment [12] was over 100 µM in each case. The TGI in experiment [13], in [14], in experiment [15], in [16] and in experiment [18] was over 100 µM each time.
Regarding `O=C(O)C1CCCCN1C(=O)Cc1c[nH]c2ccccc12` (stereo not drawn), the TGI in [1], in experiment [2], in experiment [3], in experiment [4], in experiment [6] and in [7] was over 100 µM in each case. In addition, the TGI in experiment [8], in experiment [9], in [10], in [11], in [12] and in experiment [13] was over 100 µM in each case. The TGI in experiment [14], in experiment [15], in experiment [16] and in [18] was over 100 µM each time.
Regarding `CCCCCCNC(=S)N/N=C(\C)c1ccccn1`, the TGI in experiment [1] came out at 12.1 µM; in experiment [3], 14.9 µM; in [4], 19.4 µM; in experiment [5] it was 14.7 µM; in [6], 20.6 µM; in [7], 18.2 µM. For the same compound, the TGI was 6.37 µM in experiment [8]; 6.86 µM in experiment [9]; 19.8 µM in experiment [10]; 21.8 µM in experiment [11]; 8.97 µM in [12]; 9.31 µM in experiment [13]. Further, the TGI in experiment [14] stood at 23.4 µM; in experiment [15] it was 14.4 µM; in experiment [16] it was 21.9 µM; in [18] it was 22.7 µM.
Regarding `O=C1NC(=S)NC(=O)C1=Cc1ccc(-c2ccccc2)cc1`, the TGI in experiment [1], in experiment [2], in [3], in [4], in [5] and in [6] was over 100 µM each time. Moreover, the TGI in experiment [7], in experiment [8], in [9], in [11], in experiment [12] and in [13] was over 100 µM throughout. In addition, the TGI in experiment [14], in experiment [15], in [16] and in [18] was over 100 µM throughout.
Consider `O=C(Cn1c(=O)oc2ccc(C(=O)c3ccc(F)cc3)cc21)c1ccccc1`, for which the TGI in experiment [1], in experiment [2], in experiment [3], in [4], in [5] and in [6] was over 100 µM throughout. Further, the TGI in experiment [7], in [8], in experiment [9], in experiment [10], in [17] and in [12] was over 100 µM in each case. Also, the TGI in experiment [13], in experiment [14], in experiment [15], in experiment [16] and in [18] was over 100 µM throughout.
In the case of `CCOC(=O)CCC(NC(=O)C(N)c1ccc([N+](=O)[O-])cc1)C(=O)NC(CCC(=O)OCC)C(=O)OCC` (stereo not drawn), the TGI in experiment [1], in experiment [2], in experiment [3], in experiment [4], in experiment [5] and in experiment [6] was over 100 µM each time. In addition, the TGI in [7], in experiment [8], in experiment [9], in experiment [17], in [12] and in [13] was over 100 µM each time. For the same compound, the TGI in [14], in [15], in [16] and in experiment [18] was over 100 µM in each case.
Take `CN1N=C(c2ccccc2)C(C(c2ccccc2[N+](=O)[O-])C2C(=O)N(C)N=C2c2ccccc2)C1=O` (stereo not drawn): the TGI was over 100 µM in experiment [1]; 72.7 µM in experiment [2]; over 100 µM in experiment [3]; over 100 µM in [4]; over 100 µM in experiment [5]; over 100 µM in experiment [6]. Besides, the TGI in experiment [7], in experiment [8], in experiment [9], in experiment [10], in experiment [11] and in experiment [12] was over 100 µM each time. Besides, the TGI in [13], in experiment [14], in [15], in experiment [16] and in [18] was over 100 µM in each case.
Consider `CCOC(=O)[C@@H]1ON2O[C@H](OC3CCCCC3c3ccccc3)C[C@H]3OC(=O)[C@@H]1C32` (stereo partly drawn), for which the TGI in experiment [1], in experiment [2], in experiment [3], in experiment [4], in experiment [5] and in experiment [6] was over 100 µM in each case. Moreover, the TGI in experiment [7], in experiment [8], in experiment [9], in experiment [10], in experiment [17] and in experiment [11] was over 100 µM in each case. Moreover, the TGI in [12], in [13], in experiment [14], in [15] and in experiment [16] was over 100 µM in each case.
`CCOC(=O)N(C)C(=C(F)F)C(F)(F)F`: the TGI turned out to be 72 µM in experiment [1]; 51.6 µM in experiment [2]; 68.9 µM in experiment [3]; 78.2 µM in [4]; 30 µM in experiment [5]; 40.2 µM in [6]. In addition, the TGI in [7] was 44 µM; in experiment [9], 46.5 µM; in experiment [17], 20.9 µM; in [11], over 100 µM; in experiment [12], over 100 µM; in [13], 49 µM. In addition, the TGI in experiment [14] worked out at 92.1 µM; in [15], 84.2 µM; in experiment [16] it was 34.3 µM; in [18] it was 44.5 µM.
In the case of `Cc1nc(C)c(N2CCN(C(=O)O)CC2)c(=O)[nH]1`, the TGI in experiment [1], in experiment [2], in experiment [3], in [4], in experiment [5] and in experiment [6] was over 100 µM in each case. The TGI in [7], in [8], in experiment [9], in experiment [10], in experiment [17] and in experiment [11] was over 100 µM throughout. Also, the TGI in [12], in [13], in experiment [14], in [15] and in experiment [16] was over 100 µM each time.
`OC(Cc1ccc2ccccc2n1)(C(F)(F)Cl)C(F)(F)Cl`: the TGI in [1], in experiment [2], in experiment [3], in experiment [4], in experiment [5] and in experiment [6] was over 10 µM in each case. Also, the TGI in [7], in experiment [8], in experiment [9], in [10], in experiment [17] and in [11] was over 10 µM throughout. For the same compound, the TGI in [12], in [14], in [15] and in [16] was over 10 µM throughout.
For `COc1cccc(C=C2N=C(c3ccccc3)N(n3c(-c4ccccc4)nc4ccccc4c3=O)C2=O)c1`, the TGI in experiment [1], in experiment [2], in [3], in experiment [4], in experiment [5] and in [6] was over 100 µM in each case. Also, the TGI in experiment [7] is over 100 µM; in experiment [8], over 100 µM; in experiment [9], over 100 µM; in experiment [10], 62.1 µM; in [17], over 100 µM; in experiment [12], over 100 µM. The TGI in experiment [13], in experiment [14], in experiment [15] and in experiment [16] was over 100 µM throughout.
As to `O=C(c1ccccc1)c1ccc2c(c1)nc1n2C(c2c(F)cccc2F)SC1` (stereo not drawn), the TGI is over 100 µM in experiment [1]; over 100 µM in experiment [3]; 55.9 µM in experiment [4]; 27.8 µM in experiment [5]; 55.1 µM in experiment [6]; 46.4 µM in [7]. In addition, the TGI in [8] is 72.2 µM; in experiment [9] it was 61 µM; in [10] it was over 100 µM; in experiment [11], 96.2 µM; in experiment [12], 66.7 µM; in experiment [13] it was over 100 µM. Moreover, the TGI in experiment [14] was 43.5 µM; in experiment [15] it was over 100 µM; in [16] it was over 100 µM; in experiment [18] it was 62.4 µM.
As to `CCO/C(O)=C(/C(=N)N1CCCC1)C(=O)Nc1cccc(Cl)c1`, the TGI in [1], in [2], in experiment [3], in [4], in experiment [6] and in experiment [7] was over 100 µM in each case. The TGI in [8], in [9], in [10], in experiment [11], in experiment [12] and in experiment [13] was over 100 µM each time. Moreover, the TGI in [14], in [15], in experiment [16] and in experiment [18] was over 100 µM each time.
Turning to `COC(=O)c1nn2ccc3ccccc3c2c1C(=O)OC`, the TGI in experiment [1], in experiment [2], in [3], in experiment [4], in experiment [5] and in experiment [6] was over 100 µM throughout. In addition, the TGI in experiment [7], in experiment [8], in experiment [9], in [10], in [17] and in experiment [12] was over 100 µM each time. The TGI in [14], in experiment [15], in [16] and in experiment [18] was over 100 µM throughout.

The values above are taken from PubChem BioAssay (NCI).
